Tested on: ectromelia, cowpox, vaccinia, or monkeypox virus
Design: species or system mice
Conditions: mouse, in vivo

## CCCCCCCCCCCCCCCCOCCCOP(=O)(O)CO[C@H](CO)Cn1ccc(N)nc1=O [CMX001, 1-O-hexadecyloxypropyl cidofovir]
  preventing mortality: effective in preventing mortality

Reference: US20170333459A1 (priority 2010, published 2017)
